Data from US11447502B2, “Antibacterial agents: dual-targeted RNA polymerase inhibitors” (priority 2018, dated 2022).
≈ marks a conversion by molar mass, not a printed value.

Assays:
[1] = tested on: M. tuberculosis H37Rv; test: Microplate Alamar Blue MIC assay, M. tuberculosis H37Rv; assay type: cell-based; settings: Mycobacterium tuberculosis, read-out: antibacterial activity M. tuberculosis H37Rv MIC
[2] = tested on: M. avium ATCC 25291; test: Microplate Alamar Blue MIC assay, M. avium; assay type: cell-based, Mycobacterium avium

In the case of `CO[C@H]1/C=C/O[C@@]2(C)Oc3c(C)c(O)c4c(O)c(c(/C=N/N5CCN(C)CC5)c(O)c4c3C2=O)NC(=O)/C(C)=C\C=C\[C@H](C)[C@H](O)[C@@H](C)[C@@H](O)[C@@H](C)[C@H](OC(C)=O)[C@@H]1C` [rifampin, reference compound], the MIC [1] is reported as 0.049 µg/mL (≈ 0.0595 µM) and the “antibacterial activity M. avium ATCC 25291” value [2] is reported as 0.024.
In the case of `CO[C@H]1/C=C/O[C@@]2(C)Oc3c(C)c(O)c4c(O)c(c(/C=N/N5CCN(CCN6CCN(c7ccc(F)cc7NC(=O)C(Cc7ccccc7)NC(=O)c7ccccc7F)CC6)CC5)c(O)c4c3C2=O)NC(=O)/C(C)=C\C=C\[C@H](C)[C@H](O)[C@@H](C)[C@@H](O)[C@@H](C)[C@H](OC(C)=O)[C@@H]1C` (some centres unmarked) [IX-403, Rifamycin SV—(CHN)—IX-402 Conjugate], the MIC [1] is reported as 3.13 µg/mL (≈ 2.41 µM) and the “antibacterial activity M. avium ATCC 25291” value [2] is reported as 3.13.
For `[2H]C([2H])(c1ccccc1)C(NC(=O)c1ccccc1F)C(=O)Nc1cc(F)ccc1N1CCN(/N=C/C2=C3NC(=O)/C(C)=C\C=C\[C@H](C)[C@H](O)[C@@H](C)[C@@H](O)[C@@H](C)[C@H](OC(C)=O)[C@H](C)[C@@H](OC)/C=C/O[C@@]4(C)Oc5c(C)c(O)c(c(c5C4=O)C2=O)C3=O)CC1` (some centres unmarked) [IX-476a, Rifamycin S—(CHN)—IX-370a Conjugate], the MIC [1] was 0.2 µg/mL (≈ 0.168 µM).
With `[2H]C([2H])(c1ccccc1)C(NC(=O)c1ccccc1F)C(=O)Nc1cc(F)ccc1N1CCN(/N=C/c2c3c(O)c4c(O)c(C)c5c(c4c2O)C(=O)[C@@](C)(O/C=C/[C@H](OC)[C@@H](C)[C@@H](OC(C)=O)[C@H](C)[C@H](O)[C@H](C)[C@@H](O)[C@@H](C)/C=C/C=C(/C)C(=O)N3)O5)CC1` (some centres unmarked) [IX-404a, Rifamycin SV—(CHN)—IX-370a Conjugate] the MIC [1] was 0.049 µg/mL (≈ 0.0412 µM) and the “antibacterial activity M. avium ATCC 25291” value [2] was 0.048.
For `[2H]C([2H])(c1ccccc1)C(NC(=O)c1ccccc1F)C(=O)Nc1cc(F)ccc1N1CCN(C(=O)COc2cc3c(O)c4c(O)c(C)c5c(c24)C(=O)[C@@](C)(O/C=C/[C@H](OC)[C@@H](C)[C@@H](OC(C)=O)[C@H](C)[C@H](O)[C@H](C)[C@@H](O)[C@@H](C)/C=C/C=C(/C)C(=O)N3)O5)CC1` (some centres unmarked) [IX-408a, Rifamycin B—IX-370a Conjugate], the MIC [1] was 0.2 µg/mL (≈ 0.166 µM) and the “antibacterial activity M. avium ATCC 25291” value [2] was 0.78.
In the case of `CO[C@H]1/C=C/O[C@@]2(C)Oc3c(C)c(O)c4c(O)c(c(/C=N/N5CCN(c6ccc(F)cc6NC(=O)C(Cc6ccccc6)NC(=O)c6ccccc6F)CC5)c(O)c4c3C2=O)NC(=O)/C(C)=C\C=C\[C@H](C)[C@H](O)[C@@H](C)[C@@H](O)[C@@H](C)[C@H](OC(C)=O)[C@@H]1C` (some centres unmarked) [IX-398, Rifamycin SV—(CHN)—IX-214 Conjugate], the MIC [1] is reported as 0.39 µg/mL (≈ 0.328 µM) and the “antibacterial activity M. avium ATCC 25291” value [2] is reported as 0.098.
